One compound from patent US20220016101A1 (ACADIA Pharmaceuticals Inc., priority 2018, published 2022) can be followed below.

The assay deals with norepinephrine transporter (Homo sapiens, UniProt P23975). Briefly: Receptor profile: affinity (Ki) at NET. It is filed as binding. The following applies: data on file.

SMILES strings stand for the structures.

Chain of norepinephrine transporter (P23975 whole entry, species assumed): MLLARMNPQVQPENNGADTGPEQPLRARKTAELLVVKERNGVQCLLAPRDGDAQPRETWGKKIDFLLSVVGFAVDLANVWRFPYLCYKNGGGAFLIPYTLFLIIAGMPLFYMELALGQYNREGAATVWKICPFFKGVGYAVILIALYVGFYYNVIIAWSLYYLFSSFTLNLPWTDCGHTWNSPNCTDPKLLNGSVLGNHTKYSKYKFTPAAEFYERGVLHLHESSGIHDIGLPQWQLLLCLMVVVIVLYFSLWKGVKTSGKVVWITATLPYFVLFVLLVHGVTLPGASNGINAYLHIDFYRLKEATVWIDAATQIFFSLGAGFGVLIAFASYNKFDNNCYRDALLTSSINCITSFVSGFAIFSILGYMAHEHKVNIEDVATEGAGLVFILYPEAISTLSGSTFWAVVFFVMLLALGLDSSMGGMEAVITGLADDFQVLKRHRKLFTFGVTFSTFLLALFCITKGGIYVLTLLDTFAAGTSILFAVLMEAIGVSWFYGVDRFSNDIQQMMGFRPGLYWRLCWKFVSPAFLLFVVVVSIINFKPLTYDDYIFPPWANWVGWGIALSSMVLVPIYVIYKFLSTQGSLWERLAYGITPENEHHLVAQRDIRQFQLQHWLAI

The Ki is a measure of affinity in units of concentration, obtained from inhibition or displacement. `CC(C)COc1ccc(CNC(=O)N(Cc2ccc(F)cc2)C2CCN(C)CC2)cc1` [pimavanserin, N-(4-Fluorophenylmethyl)-N-(1-methylpiperidin-4-yl)-N′-(4-(2-methylpropyloxy)phenylmethyl)carbamide]: the Ki was over 1000 nM.
